Source: article PMC10502144, “Anti-methicillin-resistant Staphylococcus aureus activity and safety evaluation of 14-O-[(5-ethoxycarbonyl-4,6-dimethylpyrimidine-2-yl) thioacetyl] mutilin (EDT)” (Scientific Reports, 2023)
Where a name gives a salt, the structure may show the parent alone. Read-outs that look alike come from different tables or passages of the source.

Experiments:
[1] = tested on: GFP expression in S. aureus ATCC 29,213; test: Green fluorescent protein (GFP) inhibition assay; type: cell-based, Staphylococcus aureus; conditions: 1 and 4 μM, co-incubation 4 h, fluorescence microscopy
Method: The inhibition assay against GFP expression was performed according to our previous report[41] with minor modification. Plasmids carried erythromycin resistant genes were labeled with GFP and electrotransformed into S. aureus. After screenings using erythromycin, S. aureus strain expressing GFP was then obtained and grown to mid-logarithmic phase, followed by collecting centrifugally and re-suspending with PBS buffer. The obtained suspensions were co-incubated with EDT and tiamulin with the final concentrations of 1 and 4 μM, respectively, for 4 h at 37 °C. The cells were subsequently collected by centrifugation to perform imaging using fluorescence microscopy after re-suspending with PBS buffer.

MRSA-337371 [2] = test: Post-antibiotic effect (PAE) test, viable counting; type: cell-based, methicillin-resistant Staphylococcus aureus; conditions: 1×, 2×, 4× and 8× MIC, 1 h exposure
Method: The PAE of EDT against MRSA-337371 was determined using a standard viable counting method. We selected 1 × , 2 × , 4 × and 8 × MICs of EDT and tiamulin (0.0313 and 0.5 μg/mL, respectively), to conduct PAE test on MRSA strains. The strains (1 × 10^5 CFU/mL) were placed in MHB broth test tubes containing the above four concentrations of EDT and tiamulin, respectively, and cultured in a shaking bed at 37 °C for 1 h, followed by centrifuging for 10 min at 4000 r/min. The supernatants were discarded and the precipitations were dissolved with 2 mL normal saline to centrifuge. The same procedure was repeated three times. The final bacterial precipitates were taken and cultured in MHB broth with the initial concentration of 5.5 Log CFU/mL at 37 °C in a shaking bed. Samples were then taken at 0, 1, 2, 3, 4, 5, 6, 8, 12, 18 and 24 h to dilute 10–100,000 times and the 10 μL dilutions were evenly smear on MHA plate medium to culture at 37 °C for 48 h. Finally, the average numbers of colonies on the plates were obtained and the PAE values were calculated as hour using equation PAE = T − C, in which T was the time required for the increase of 1 log10 CFU/mL after the removal of drugs and C was the time required for the number of MRSA in the control tube to increase by 1 log10 CFU/mL. Experiments were performed in triplicate.

[3] = Cytotoxicity assay (CCK-8), HepG2; type: cell-based; conditions: human, HepG2 cells, read-out: cell viability
Method: Cytotoxicity of EDT and tiamulin was studied against human hepatocellular carcinoma cells (HepG2) and human embryonic kidney 293T (HEK293T) cells following a protocol as published in our earlier reports[41],[42]. Cells were counted and inoculated into 96-well plates with approximately10^5 cells density for incubating 24 h at 37 °C. […] The same procedure was repeated three times. The percentages of cell viability were calculated by the formula: Cell viability (%) = [Asample ‒ Anegative]/[Apositve ‒ Anegative] × 100%.

MRSA-337371 [4] = test: microbe, parasite or virus in culture; type: cell-based, methicillin-resistant Staphylococcus aureus; conditions: for MIC: Staphylococcus aureus, MRSA
Method: We performed resistance induction tests on EDT and tiamulin which was used as a referent drug. […] Finally, MRSA was cultured for 30 generations with the same procedure. At the 31st generation, drugs were removed until 40th generation and MICs were determined in each generation.

C=C[C@]1(C)C[C@@H](OC(=O)CSCCN(CC)CC)[C@]2(C)[C@H](C)CC[C@]3(CCC(=O)[C@H]32)[C@@H](C)[C@@H]1O [tiamulin, Tiamulin fumarate, reference compound]
inhibition of GFP expression (green fluorescence intensity) [1]: inhibited GFP expression | PAE values, concentration dependence (MRSA-337371 [2]): increased PAE values in a concentration-dependent manner | viability at 6 h, 100 µM ([3]; HepG2, 100 μM): 60.8% | viability at 6 h, 200 µM ([3]; HepG2, 200 μM): 55.6% | MIC (MRSA-337371 [4]; 24 h, read-out: MIC in the resistance development study, day 1): 0.5 µg/mL | MIC (MRSA-337371 [4]; 48 h, read-out: MIC in the resistance development study, day 2): 0.5 µg/mL | MIC (MRSA-337371 [4]; 72 h, read-out: MIC in the resistance development study, day 3): 0.5 µg/mL | MIC (MRSA-337371 [4]; 96 h, read-out: MIC in the resistance development study, day 4): 0.5 µg/mL | MIC (MRSA-337371 [4]; 120 h, read-out: MIC in the resistance development study, day 5): 0.5 µg/mL | MIC (MRSA-337371 [4]; 144 h, read-out: MIC in the resistance development study, day 6): 0.5 µg/mL | MIC (MRSA-337371 [4]; 168 h, read-out: MIC in the resistance development study, day 7): 1 µg/mL | MIC (MRSA-337371 [4]; 192 h, read-out: MIC in the resistance development study, day 8): 1 µg/mL | MIC (MRSA-337371 [4]; 216 h, read-out: MIC in the resistance development study, day 9): 1 µg/mL | MIC (MRSA-337371 [4]; 240 h, read-out: MIC in the resistance development study, day 10): 1 µg/mL | MIC (MRSA-337371 [4]; 264 h, read-out: MIC in the resistance development study, day 11): 1 µg/mL | MIC (MRSA-337371 [4]; 288 h, read-out: MIC in the resistance development study, day 12): 1 µg/mL | MIC (MRSA-337371 [4]; 312 h, read-out: MIC in the resistance development study, day 13): 1 µg/mL | MIC (MRSA-337371 [4]; 336 h, read-out: MIC in the resistance development study, day 14): 2 µg/mL | MIC (MRSA-337371 [4]; 360 h, read-out: MIC in the resistance development study, day 15): 1 µg/mL | MIC (MRSA-337371 [4]; 384 h, read-out: MIC in the resistance development study, day 16): 2 µg/mL | MIC (MRSA-337371 [4]; 408 h, read-out: MIC in the resistance development study, day 17): 2 µg/mL | MIC (MRSA-337371 [4]; 432 h, read-out: MIC in the resistance development study, day 18): 2 µg/mL | MIC (MRSA-337371 [4]; 456 h, read-out: MIC in the resistance development study, day 19): 2 µg/mL | MIC (MRSA-337371 [4]; 480 h, read-out: MIC in the resistance development study, day 20): 4 µg/mL | MIC (MRSA-337371 [4]; 504 h, read-out: MIC in the resistance development study, day 21): 2 µg/mL | MIC (MRSA-337371 [4]; 528 h, read-out: MIC in the resistance development study, day 22): 4 µg/mL | MIC (MRSA-337371 [4]; 552 h, read-out: MIC in the resistance development study, day 23): 4 µg/mL | MIC (MRSA-337371 [4]; 576 h, read-out: MIC in the resistance development study, day 24): 4 µg/mL | MIC (MRSA-337371 [4]; 600 h, read-out: MIC in the resistance development study, day 25): 4 µg/mL | MIC (MRSA-337371 [4]; 624 h, read-out: MIC in the resistance development study, day 26): 4 µg/mL | MIC (MRSA-337371 [4]; 648 h, read-out: MIC in the resistance development study, day 27): 4 µg/mL | MIC (MRSA-337371 [4]; 672 h, read-out: MIC in the resistance development study, day 28): 4 µg/mL | MIC (MRSA-337371 [4]; 696 h, read-out: MIC in the resistance development study, day 29): 4 µg/mL | MIC (MRSA-337371 [4]; read-out: MIC in the resistance development study, day 30): 4 µg/mL | MIC (MRSA-337371 [4]; read-out: MIC in the resistance development study, day 31, drugs removed): 4 µg/mL | MIC (MRSA-337371 [4]; read-out: MIC in the resistance development study, day 32, drugs removed): 4 µg/mL | MIC (MRSA-337371 [4]; read-out: MIC in the resistance development study, day 33, drugs removed): 2 µg/mL | MIC (MRSA-337371 [4]; read-out: MIC in the resistance development study, day 34, drugs removed): 2 µg/mL | MIC (MRSA-337371 [4]; read-out: MIC in the resistance development study, day 35, drugs removed): 2 µg/mL | increase in the MIC values (MRSA-337371 [4]; after 7 generations of continuous culture of MRSA): twofold | sensitivity of MRSA after removing drugs (MRSA-337371 [4]; after removing drugs and culturing for additional 10 generations): recovered the initial sensitivity | increase in the MIC values (MRSA-337371 [4]; at 22 generations): eightfold
